From patent publication US6355658B1, “Coumarin derivatives, methods of preparation and application as medicines” (Centre National de la Recherche Scientifique, priority 1997, dated 2002)

Experiments:
bovine trypsin = target: T1, bovine trypsin (Bos taurus, UniProt P00760); assay: Inactivation kinetics of bovine trypsin (chromogenic substrate N-benzoyl-Arg-pNA); assay type: biochemical; settings: 25° C., pH 7.5, N.I. = non-inactivator
T1 sequence (P00760 24-246): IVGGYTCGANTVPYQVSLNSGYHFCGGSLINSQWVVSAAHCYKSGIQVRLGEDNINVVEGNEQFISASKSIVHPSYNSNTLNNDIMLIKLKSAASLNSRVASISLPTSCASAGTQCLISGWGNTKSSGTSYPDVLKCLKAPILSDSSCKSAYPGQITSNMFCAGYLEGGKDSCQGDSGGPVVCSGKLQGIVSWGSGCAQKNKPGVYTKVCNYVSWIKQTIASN
Method: (§1) The inactivating or inhibitory properties of the coumarin derivatives were tested with respect to a certain number of enzymes: human leukocyte elastase, bovine α-chymotrypsin, human thrombin and bovine trypsin. The kinetic measurements were taken at 25° C. in the following buffers: 0.1 M Hepes, 0.5 M NaCl, 0.01% Tween 80, pH 8.0 (human leukocyte elastase); 0.025 M NaH2PO4, 0.05 M KCl, pH 7.5 (α-chymotrypsin); 0.01 M Tris, 0.01 M Hepes, 0.1 M NaCl, 0.1% PEG-6000, pH 7.5 (human thrombin); 0.1 M Tris, 0.01 M CaCl2, pH 7.5 (bovine trypsin). The chromogenic substrates used to determine the activity of the enzymes are: MeOSuc-Ala2-Pro-Val-pNA (human leukocyte elastase); Suc-Ala2-Pro-Phe-pNA (α-chymotrypsin); H-D-Phe-Pip-Arg-pNA (human thrombin); N-benzoyl-Arg-pNA (bovine trypsin) (pNA: para-nitroaniline).
(§2) The interaction of a suicide substrate with a serine protease corresponds to the minimum reaction scheme described in equation 1 in which E represents the enzyme, I represents the inhibitor, E-I represents the acyl-enzyme and E-I′ represents the inactivated enzyme [Silverman R. B., 1988, “Mechanism-based enzyme inactivation: chemistry and enzymology”, volume 1 CRC Press, Boca Raton, Fla.]: [drawing 76]
(§3) When k4 is small compared to k3, equation 1 can be simplified (equation 2, [Daniels et al., 1983, J. Biol. Chem., 258: 15046-15053]): [drawing 77]
(§4) Considering the first instants of the reaction, the system reduces to a simplified equation of the form of equation 2.
(§5) The kinetic constants characterizing the inactivation of the enzymes with the coumarin derivatives were determined using either the conventional sampling method (or batchwise method) or a method placing the inhibitor and the substrate in competition (or continuous method); these methods are described by Pochet et al. [Pochet et al., 1996, J. Med. Chem., 39: 2579-2585].
(§6) The inactivation of serine proteaaes with the coumarin derivatives is thus characterized by the following constants (see Eq. 2):
(§7) KI: apparent dissociation constant of an enzyme-inhibitor complex located upstream of ki
(§8) ki: first-order rate constant for inactivation at infinite inhibitor concentration
(§9) ki/KI: index of the overall inactivating efficacy of the inhibitor.

human leukocyte elastase = target: T2, human leukocyte elastase (Homo sapiens, UniProt P08246); assay: Inactivation kinetics of human leukocyte elastase (chromogenic substrate MeOSuc-Ala2-Pro-Val-pNA); assay type: biochemical; settings: 25° C., pH 8.0
T2 sequence (P08246 30-247 limits assumed): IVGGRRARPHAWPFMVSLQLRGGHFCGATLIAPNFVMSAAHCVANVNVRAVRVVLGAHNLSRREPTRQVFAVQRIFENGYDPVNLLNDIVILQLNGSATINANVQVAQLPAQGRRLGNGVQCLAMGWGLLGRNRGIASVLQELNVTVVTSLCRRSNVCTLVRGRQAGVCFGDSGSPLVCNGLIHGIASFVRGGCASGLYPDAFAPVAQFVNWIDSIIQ
Method: as §1, §2, §3, §4, §5, §6, §7, §8, §9

human thrombin = target: T3, human thrombin (Homo sapiens, UniProt P00734); assay: Inactivation kinetics of human thrombin (chromogenic substrate H-D-Phe-Pip-Arg-pNA); assay type: biochemical; settings: 25° C., pH 7.5, N.I. = non-inactivator
T3 construct: human thrombin
Method: as §1, §2, §3, §4, §5, §6, §7, §8, §9

bovine α-chymotrypsin = target: T4, bovine α-chymotrypsin (Bos taurus, UniProt P00766); assay: Inactivation kinetics of bovine α-chymotrypsin (chromogenic substrate Suc-Ala2-Pro-Phe-pNA); assay type: biochemical; settings: 25° C., pH 7.5, N.I. = non-inactivator
T4 construct: bovine α-chymotrypsin
Method: as §1, §2, §3, §4, §5, §6, §7, §8, §9

CC(=O)OCc1ccc2oc(=O)c(C(=O)Oc3cncc(Cl)c3)cc2c1 [Id3, 5-chloro-3-pyridyl 6-acetoxymethyl-2-oxo-2H-1-benzopyran-3-carboxylate]
Ki/KI or kobs/[I], Trypsin (bovine trypsin; TABLE 3): N.I. N.I. N.I. N.I. N.I. N.I. N.I. — —
Ki/KI or kobs/[I], Trypsin (bovine trypsin; second table headed TABLE 3): N.I. N.I. N.I. N.I. N.I. N.I. N.I. — —
kinact/KI (human leukocyte elastase; TABLE 3, no chloromethyl in position 6, inactivation phase of transient inactivation, read-out: Ki/KI or kobs/[I], LHE): 107000 M⁻¹ s⁻¹
Ki/KI or kobs/[I], LHE (human leukocyte elastase; TABLE 3, inactivation phase): 107000 M⁻¹ s⁻¹
melting point: 153 to 155 °C
Ki/KI or kobs/[I], Thrombin (human thrombin; TABLE 3): N.I. N.I. N.I. N.I. N.I. N.I. N.I. N.I. —
Ki/KI or kobs/[I], Thrombin (human thrombin; second table headed TABLE 3): N.I. N.I. N.I. N.I. N.I. N.I. N.I. N.I. —
Ki/KI or kobs/[I], α-CT (bovine α-chymotrypsin; TABLE 3, no chloromethyl in position 6): N.I.^a N.I. N.I. N.I. N.I. N.I. N.I. N.I.
Ki/KI or kobs/[I], α-CT (bovine α-chymotrypsin; second table headed TABLE 3): N.I.^a N.I. N.I. N.I. N.I. N.I. N.I. N.I.
